Laboratory results reported in patent US20060069132A1, “Azolecarboxamide herbicides” (priority 2004, published 2006).

Experiments:
Assay in all cases: Test E pre-/postemergence herbicide test
[1] = tested on: Italian ryegrass; format: in vivo, Lolium multiflorum
From the text: (§1) Seeds of plant species selected from bipinnate beggarticks (Bidens bipinnata L.), hairy beggarticks (Bidens radiata Thuill.), bermudagrass (Cynodon dactylon (L.) Pers.), Surinam grass (Urochloa decumbens (Staph) R. D. Webster, previously named Brachiaria decumbens Stapf), large crabgrass (Digitaria sanguinalis (L.) Scop.), green foxtail (Setaria viridis (L.) P. Beauv.), goosegrass (Eleusine indica (L.) Gaertn.), johnsongrass (Sorghum halepense (L.) Pers.), kochia (Kochia scoparia (L.) Schrad.), pitted morningglory (Ipomoea lacunosa L.), purple nutsedge (Cyperus rotundus L.), common ragweed (Ambrosia elatior L.), mustard (Brassica nigra (L.) W. D. J. Koch), guineagrass (Panicum maximum Jacq.), dallisgrass (Paspalum dilatatum Poir.), barnyardgrass (Echinochloa crus-galli (L). P. Beauv.), southern sandbur (Cenchrus echinatus L.), common sowthistle (Sonchus oleraceous L.), prickly sida (Sida spinosa L.), Italian ryegrass (Lolium multiflorum Lam.), common purslane (Portulaca oleracea L.), broadleaf signalgrass (Brachiaria platyphylla (Griseb.) Nash), common groundsel (Senecio vulgaris L.), common chickweed (Stellaria media (L.) Vill/Cyr.), tropical spiderwort (Commelina benghalensis L.), annual bluegrass (Poa annua L.), downy bromegrass (Bromus tectorum L.), itchgrass (Rottboellia cochinchinensis (L.) L.f.), quackgrass (Elytrigia repens (L.) Nevski), Canada horseweed (Erigeron Canadensis L.), field bindweed (Convolvulus arvensis L.), spotted spurge (Euphorbia maculata L.), common mallow (Malva sylvestris (=s silvestris) L.), and Russian thistle (Salsola kali L. ssp. Ruthenica (Iljin) Soo) were planted and treated preemergence with test chemicals formulated in a non-phytotoxic solvent mixture which included a surfactant.
(§2) At the same time, plants selected from these weed species were treated with postemergence applications of some of the test chemicals formulated in the same manner. Plants ranged in height from 2 to 18 cm (1- to 4-leaf stage) for postemergence treatments. Treated plants and controls were maintained in a greenhouse for 12 to 14 days, after which time all species were compared to controls and visually evaluated. Plant response ratings, summarized in Table E, are based on a scale of 0 to 100 where 0 is no effect and 100 is complete control. A dash (-) response means no test result.

[2] = tested on: common mallow; format: in vivo, Malva sylvestris
From the text: as §1, §2

[3] = tested on: mustard; format: in vivo, Brassica nigra
From the text: as §1, §2

[4] = tested on: pitted morningglory; format: in vivo, Ipomoea lacunosa
From the text: as §1, §2

[5] = tested on: common chickweed; format: in vivo, Stellaria media
From the text: as §1, §2

[6] = tested on: annual bluegrass; format: in vivo, Poa annua
From the text: as §1, §2

[7] = tested on: tropical spiderwort; format: in vivo, Commelina benghalensis
From the text: as §1, §2

[8] = tested on: Canada horseweed; format: in vivo, Erigeron Canadensis; details: Preemergence
From the text: as §1, §2

[9] = tested on: prickly sida; format: in vivo, Sida spinosa; details: Preemergence, scale 0 (no effect) to 100 (complete control)
From the text: as §1, §2

[10] = Postemergence, 250 g ai/ha, scale 0 to 100
[11] = Preemergence, 62 g ai/ha, scale 0 to 100
[12] = Preemergence, 125 g ai/ha, scale 0 (no effect) to 100 (complete control)
[13] = Preemergence, 250 g ai/ha, scale 0 (no effect) to 100 (complete control)
[14] = Preemergence, 500 g ai/ha, scale 0 (no effect) to 100 (complete control)
[15] = postemergence, 125 g ai/ha, scale 0 to 100
[16] = postemergence, 62 g ai/ha, scale 0 to 100
[17] = Preemergence, 125 g ai/ha, scale 0 to 100
[18] = Preemergence, 375 g ai/ha, scale 0 (no effect) to 100 (complete control)

## CCNC(=O)c1ccc(F)c(NC(=O)c2cc(C(C)(C)C)nn2CC)c1 [Compound 2, 3-(1,1-dimethylethyl)-1-ethyl-N-[5-[(ethylamino)carbonyl]-2-fluorophenyl]-1H-pyrazole-5-carboxamide]
[1]; [10]
  Plant response rating, Ryegrass, Italian: 98
[1]; [11]
  Plant response rating, Ryegrass, Italian: 60
[1]; [12]
  Plant response rating, Ryegrass, Italian: 80
[1]; [13]
  Plant response rating, Ryegrass, Italian: 95
[1]; [14]
  Plant response rating, Ryegrass, Italian: 95
[1]; [15]
  Plant response rating, Ryegrass, Italian: 90
[1]; [16]
  Plant response rating, Ryegrass, Italian: 80
[2]; [10]
  Plant response rating, Mallow: 80
[2]; [11]
  Plant response rating, Mallow: 30
[2]; [13]
  Plant response rating, Mallow: 50
[2]; [14]
  Plant response rating, Mallow: 80
[2]; [15]
  Plant response rating, Mallow: 75
[2]; [16]
  Plant response rating, Mallow: 50
[3]; [10]
  Plant response rating, Black Mustard: 100
[3]; [11]
  Plant response rating, Black Mustard: 60
[3]; [12]
  Plant response rating, Black Mustard: 100
[3]; [13]
  Plant response rating, Black Mustard: 100
[3]; [14]
  Plant response rating, Black Mustard: 100
[3]; [15]
  Plant response rating, Black Mustard: 95
[3]; [16]
  Plant response rating, Black Mustard: 90
[4]; [10]
  Plant response rating, Morningglory: 90
[4]; [11]
  Plant response rating, Morningglory: 30
[4]; [12]
  Plant response rating, Morningglory: 50
[4]; [13]
  Plant response rating, Morningglory: 60
[4]; [14]
  Plant response rating, Morningglory: 80
[4]; [15]
  Plant response rating, Morningglory: 60
[5]; [11]
  Plant response rating, Chickweed: 90
[5]; [12]
  Plant response rating, Chickweed: 90
[5]; [13]
  Plant response rating, Chickweed: 95
[5]; [14]
  Plant response rating, Chickweed: 95
[5]; [15]
  Plant response rating, Chickweed: 100
[6]; [10]
  Plant response rating, Bluegrass: 100
[6]; [11]
  Plant response rating, Bluegrass: 95
[6]; [12]
  Plant response rating, Bluegrass: 100
[6]; [13]
  Plant response rating, Bluegrass: 100
[6]; [14]
  Plant response rating, Bluegrass: 100
[6]; [15]
  Plant response rating, Bluegrass: 98
[6]; [16]
  Plant response rating, Bluegrass: 90
[7]; [10]
  Plant response rating, Spiderwort: 70
[7]; [11]
  Plant response rating, Spiderwort: 20
[7]; [12]
  Plant response rating, Spiderwort: 60
[7]; [13]
  Plant response rating, Spiderwort: 70
[7]; [14]
  Plant response rating, Spiderwort: 100
[7]; [16]
  Plant response rating, Spiderwort: 20
[8]; 62 g ai/ha, scale 0 to 100
  Plant response rating, Horseweed: 80
[8]; 125 g ai/ha, scale 0 (no effect) to 100 (complete control)
  Plant response rating, Horseweed: 100
[8]; 250 g ai/ha, scale 0 (no effect) to 100 (complete control)
  Plant response rating, Horseweed: 100
[8]; 500 g ai/ha, scale 0 (no effect) to 100 (complete control)
  Plant response rating, Horseweed: 100

## CCc1nn(C(C)(C)C)cc1C(=O)Nc1cc(C(=O)N(C)C)ccn1 [Compound 293]
[9]; 250 g ai/ha
  Plant response rating, Prickly Sida: 80
[9]; 375 g ai/ha
  Plant response rating, Prickly Sida: 100
[9]; 500 g ai/ha
  Plant response rating, Prickly Sida: 100
[1]; [17]
  Plant response rating, Ryegrass, Italian: 60
[1]; [13]
  Plant response rating, Ryegrass, Italian: 95
[1]; [18]
  Plant response rating, Ryegrass, Italian: 95
[1]; [14]
  Plant response rating, Ryegrass, Italian: 100
[2]; [17]
  Plant response rating, Mallow: 40
[2]; [13]
  Plant response rating, Mallow: 50
[2]; [18]
  Plant response rating, Mallow: 80
[2]; [14]
  Plant response rating, Mallow: 85
[3]; [17]
  Plant response rating, Black Mustard: 95
[3]; [13]
  Plant response rating, Black Mustard: 100
[3]; [18]
  Plant response rating, Black Mustard: 100
[3]; [14]
  Plant response rating, Black Mustard: 100
[4]; [17]
  Plant response rating, Morningglory: 10
[4]; [13]
  Plant response rating, Morningglory: 40
[4]; [18]
  Plant response rating, Morningglory: 50
[4]; [14]
  Plant response rating, Morningglory: 90
[6]; [17]
  Plant response rating, Bluegrass: 95
[6]; [13]
  Plant response rating, Bluegrass: 95
[6]; [18]
  Plant response rating, Bluegrass: 95
[6]; [14]
  Plant response rating, Bluegrass: 100
[7]; [17]
  Plant response rating, Spiderwort: 60
[7]; [13]
  Plant response rating, Spiderwort: 80
[7]; [18]
  Plant response rating, Spiderwort: 80
[7]; [14]
  Plant response rating, Spiderwort: 90
